According to patent US20250276993A1, “PSEUDO-DISACCHARIDE COMPOUNDS” (UNIVERSITEIT LEIDEN, priority 2022, published 2025):

Experiments:
HPSE (platelet) = molecular target: T1, HPSE (platelet) (Homo sapiens, UniProt Q9Y251); test: cABPP Assay 2, platelet lysates, HPSE; assay type: biochemical
T1 construct: endogenous in cells; host or cells: human platelet lysates
T1 sequence (Q9Y251 158-543 limits assumed): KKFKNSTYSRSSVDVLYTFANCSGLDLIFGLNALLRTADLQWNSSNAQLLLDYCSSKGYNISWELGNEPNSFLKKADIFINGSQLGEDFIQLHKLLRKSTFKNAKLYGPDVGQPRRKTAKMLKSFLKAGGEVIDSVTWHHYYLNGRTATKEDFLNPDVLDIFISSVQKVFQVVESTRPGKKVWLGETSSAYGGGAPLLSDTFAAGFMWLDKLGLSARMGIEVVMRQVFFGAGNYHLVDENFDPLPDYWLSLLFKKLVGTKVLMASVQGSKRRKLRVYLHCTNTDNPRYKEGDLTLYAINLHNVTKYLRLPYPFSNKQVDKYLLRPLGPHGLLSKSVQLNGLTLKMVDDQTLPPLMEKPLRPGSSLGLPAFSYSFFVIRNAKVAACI
T1 sequence (Q9Y251 36-109 limits assumed): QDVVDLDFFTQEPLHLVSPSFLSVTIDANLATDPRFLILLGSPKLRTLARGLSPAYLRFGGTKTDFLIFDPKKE
Procedure: For further competitive ABPP studies, a working protein mixture was prepared by mixing the platelet lysates (87.5 μL), buffer (pH 5.0, 150 mM, 157.5 μL) and 3 M NaCl solution (35 μL). The enzymatic reactions were carried out at a constant concentration of read-out 7 (100 nM, final). For each inhibitor 2, 12 and 13, triplicate sets of ten 0.5 mL low protein binding Eppendorf tubes were prepared. Working solutions of each inhibitor (1% DMSO (w/v), 5 μL) in a range of ten concentrations (100, 50, 25, 12.5, 6.3, 3.1, 1.6, 0.8, 0.4, 0 μM) were prepared with MilliQ water and kept on ice. The working protein mixture (8 μL) was added in each protein low binding 0.5 mL Eppendorf tube, and 1 μL of inhibitor solution was added while on ice.
Further cABPP studies were undertaken using platelet lysates to provide a more physiologically realistic environment. Platelet lysates contain complex mixtures of overlapping enzyme activities, including both endo- and exo-β-glucuronidases HPSE and GUSB respectively, thus provide a challenging environment to test inhibitor specificity.

HPSE [1] = molecular target: T2, HPSE (Homo sapiens, UniProt Q9Y251); test: Fondaparinux cleavage assay; assay type: biochemical
T2 sequence (Q9Y251 36-109 limits assumed): T1 sequence (Q9Y251 36-109 limits assumed)
T2 sequence (Q9Y251 158-543 limits assumed): T1 sequence (Q9Y251 158-543 limits assumed)

CAG human myeloma cells = test: CAG myeloma metastasis model; assay type: in vivo, NOD/SCID mice
Procedure: CAG myeloma—Luciferase-labeled CAG human myeloma cells (3×10^6) were injected into the tail vein of NOD/SCID mice. 3-5 days after cell inoculation, mice were randomly assigned to 4 cohorts (6 mice each) receiving: (a) vehicle, (b) compound 2 (i.p. 300 nmol/day), (c) bortezomib (0.5 mg/kg twice weekly) or (d) 2 plus bortezomib (dosing as for individual compounds). Tumor development was inspected (every 7 days) by IVIS imaging as detailed above. Tumor burden was quantified using Living Image software. Plots and statistical analyses were carried out in Prism 9 (Graphpad software).

U87 glioblastoma cells = test: Matrigel invasion assay; assay type: cell-based, human; conditions: 20 μM inhibitor, 4 h
Procedure: The Matrigel invasion assay was used to assess the effects of the compounds of the invention on cancer cell aggression. This is an in cellulo model of cell invasion through a HSPG rich basement membrane. The ability of cells to migrate through transwell inserts coated with Matrigel (an ECM secretion from Engelbreth-Holm-Swarm mouse sarcoma cells) correlates well with their in vivo invasive potential (Hall et al., Methods Mol Biol, 1070, 1-11 (2014)).
1×10^5 U87 cells in 200 μL DMEM media (without serum) were seeded onto the top chamber of a Matrigel-coated Boyden transwell filter, alongside 20 μM HPSE inhibitor (or PBS control). Cells in the upper chamber were separated by Matrigel from a lower chamber containing 600 μL DMEM, supplemented with 10% FBS. Plates were incubated at 37° C. for 4 h, before fixing cells in 4% (v/v) paraformaldehyde, and staining with 0.5% (w/v) crystal violet. Matrigel and non-migrating cells in the upper side of the Boyden filter were removed by swabbing, then invading cells on the bottom side of the transwell filter imaged for analysis. 10 randomly selected microscopic fields were recorded, and cell invasion calculated using ImageJ, by quantitating the percentage of the field stained by crystal violet. Graphs were plotted using RStudio.
The Matrigel invasion assay was used to assess the effects of the compounds of the invention on cancer cell aggression. […]

HPSE [2] = molecular target: T2, HPSE; test: HSPG digest assay, recombinant HPSE; assay type: biochemical
Procedure: ECM coated 35 mm culture dishes containing ^35S labelled HS were prepared as previously described (Vlodavsky et al., Curr. Protoc. Cell. Biol., Chapter 10, Unit 10, 14). Briefly, bovine corneal endothelial cells were plated at an initial density of 2×10^5 cells/ml, with 4% dextran T-40 (Sigma) included in the growth medium. Na2^35SO4 (25 μCi/ml) was added to the incubation medium on days 2 and 5 after seeding. On day 12, subendothelial ECM is exposed by dissolving the cells with PBS containing 0.5% Triton X-100 and 20 mM NH4OH, followed by four washes with PBS. For HS-degradation assays, ECM coated dishes were incubated with 200 ng recombinant HPSE in 1 mL reaction mixture (10 mM buffer Phosphate-Citrate pH 6.0, 50 mM NaCl, 1 mM DTT, 1 mM CaCl2) containing HPSE inhibitors or DMSO control. Plates were incubated at 37° C. for 5 h, then assay medium collected and applied to a 0.9×30 cm Sepharose 6B size exclusion column. The Sepharose 6B column was eluted with PBS, and ^35S radioactivity of 0.2 mL fractions quantitated using a liquid scintillation analyzer (Packard BioScience). Digest assays with U87 cell lysates were carried out in a similar fashion, except plates were incubated for 18 h with cell extracts prepared from 1×10^6 U87 glioma cells lysed by 3× freeze/thaw cycles.
The compounds of the invention were assessed against HPSE degradation of bona fide HSPGs in a physiologically relevant ECM-like environment. Cultured bovine corneal […] cells secrete a subendothelial basement membrane material rich in HSPGs, and their growth in the presence of ^35SO4^2− results in ^35S radiolabeled HSPGs (Vlodavsky et al., Curr Protoc Cell Biol, Chapter 10, Unit 10, 4, 2001). H^35S chains attached to these HSPGs are detectable after solubilization by HPSE, with enzyme inhibition leading to a corresponding reduction of signal.

## CC(=O)NC1C(O)[C@H](O)C(CO)O[C@@H]1O[C@H]1C(O)C(O)[C@@H]2OC2C1C(=O)O (stereo partly drawn) [Compound 2, 4-O-(2-N-acetyl-2-deoxy-D-glucopyranosyl)-glucurono-cyclophellitol]
HPSE (platelet); apparent IC50, in-gel competitive ABPP-based assay, platelet lysate, read-out: In vitro IC50 HPSE (platelet)
  IC50: 900 ± 300 nM
HPSE (platelet); platelet lysates, preincubation with inhibitor
  inhibitor concentration down to which HPSE signal is abrogated: 2.5 µM
HPSE [1]
  fold more potent than reference inhibitors #98 (10) and OGT2115 (11): approximately 2 fold
CAG human myeloma cells; 2: i.p. 300 nmol/day, bortezomib 0.5 mg/kg twice weekly, IVIS imaging
  metastatic burden (CAG myeloma): marked reduction in metastatic burden
CAG human myeloma cells; 33 day timepoint
  efficacy at prolonged treatment (CAG myeloma): lower efficacy following prolonged treatment
U87 glioblastoma cells
  Matrigel invasion: significantly reduced Matrigel invasion
HPSE [2]; 200 ng recombinant HPSE, pH 6.0, 5 h
  inhibition of HPSE degradation of 35S-labelled HSPGs: robust, dose dependent inhibition
HPSE [2]; HSPG digest, recombinant HPSE
  concentration giving comparable levels of inhibition: 1 µM
